Assay results as given in US10576151B2, “Ciclopirox for use in modulation of glucose homeostasis” (UNIVERSITY OF SOUTH CAROLINA, priority 2015, dated 2020).

Key:
diabetic mice = settings: cited from earlier work
BiP, GRP94 and CHOP = assay: Western blot of ER stress markers in islets in culture; type: cell-based, mouse; settings: islets exposed to increasing amounts of iron citrate alone (FIG. 12A)
Procedure: (§1) Western Blotting. The mouse islets were treated with CPX 20 μM for 24 h and lysed in RIPA buffer [50 mM Tris, pH 7.2; 150 mM NaCl; 1% sodium deoxycholate; 0.1% SDS; 1% Triton-X 100; 10 mM NaF; 1 mM Na3VO4; protease inhibitor cocktail (1:1000, Sigma, St. Louis, Mo.)] and were subjected to immunoblot analysis by standard methods. Proteins were resolved on a 10% SDS-PAGE and transferred to a nitrocellulose membrane (Bio-Rad, Hercules, Calif.). Membranes were probed overnight with GADD153 (F-168), sc-575 from Santa Cruz Biotechnology (1:50); p21 (F-5), sc-6246 from Santa Cruz Biotechnology (1:200); actin, clone C4 MAB1501 from Millipore (Billerica, Mass., USA) (1:2000); BiP antibody (cat. no. 3183) from Cell Signaling (Danvers, Mass., USA) (1:1000); GRP94 antibody (H-212), sc-11402 from Santa Cruz Biotechnology (1:500); insulin rabbit polyclonal H-86, sc-9168 from Santa Cruz Biotechnology (1:500) antibodies followed by incubation with horseradish peroxidase-conjugated (HRP) anti-mouse (1:10000), goat anti-rabbit IgG (1:10000, Santa Cruz biotechnology Inc., Santa Cruz, Calif., USA) for 1 hr. After incubation with enhanced chemiluminescence reagents (Santa Cruz biotechnology Inc.), membranes were analyzed using an Image J software for Windows.
(§2) In order to understand better how CPX operates in β cells, it was tested to determine if it affected the efficiency by which insulin is produced following glucose stimulation. […] In view of the antidiabetic activity of CPX in vivo, the inhibition of insulin release appears contradictory. […]
(§3) While modulation of insulin release by CPX constitutes a challenging mechanism by which CPX may affect ER stress, how CPX regulates insulin expression remains obscure. […] To test this hypothesis, islets were exposed to iron citrate, alone or combined with CPX, and the levels were recorded of chaperones BiP, GRP94 and CHOP, as well as of insulin.

insulin = assay: Western blot of insulin levels in islets in culture; type: cell-based, mouse; settings: islets exposed to increasing amounts of iron citrate alone (FIG. 12A)
Procedure: as §1, §2, §3

Row | Compound | effect on diabetes (diabetic mice; mice, stimulation of p53/p21 activity) | response of diabetes to treatment (diabetic mice; p21-deficient diabetic mice) | ER stress-markers BiP, GRP94 and CHOP (BiP, GRP94 and CHOP) | insulin production (insulin)
1 | COc1ccc(C2=N[C@@H](c3ccc(Cl)cc3)[C@@H](c3ccc(Cl)cc3)N2C(=O)N2CCNC(=O)C2)c(OC(C)C)c1 [nutlin-3a] | beneficial for diabetes in mice | unresponsive to nutlin-3a | – | –
2 | iron citrate | – | – | induced ER stress-markers BiP, GRP94 and CHOP | triggered insulin production
